In PubChem BioAssay AID1259407 (Chemical Carcinogenesis Research Information System (CCRIS), 2018):
The source made the active and inactive calls. The rule behind the calls is not given here.

Test system: CCRIS mutagenicity, Ames/micronucleus/aberration tests
Experiment: CCRIS mutagenicity studies
Description: The CCRIS database contains chemical records with carcinogenicity, mutagenicity, tumor promotion, and tumor inhibition test results. It was developed by the National Cancer Institute (NCI). Data are derived from studies cited in primary journals, current awareness tools, NCI reports, and other sources. Test results have been reviewed by experts in carcinogenesis and mutagenesis.
CCRIS provides historical information from the years 1985 - 2011. It is no longer updated.
This is an archive assay for CCRIS mutagenicity studies.

Nc1c2ccccc2nc2ccccc12
mutagenic call (Test System: AMES SALMONELLA TYPHIMURIUM, Strain/Indicator: TA97A, Metabolic Activation: NONE, Method: STANDARD PLATE): active; positive
mutagenic call (Test System: AMES SALMONELLA TYPHIMURIUM, Strain/Indicator: TA98, Metabolic Activation: HAMSTER, LIVER, S-9, AROCLOR 1254 (10%), Method: PREINCUBATION): inactive; negative
mutagenic call (Test System: AMES SALMONELLA TYPHIMURIUM, Strain/Indicator: TA98, Metabolic Activation: NONE, Method: FLUCTUATION (MICROTITER)): inactive; negative
mutagenic call (Test System: AMES SALMONELLA TYPHIMURIUM, Strain/Indicator: TA98, Metabolic Activation: NONE, Method: PREINCUBATION): inactive; negative
mutagenic call (Test System: AMES SALMONELLA TYPHIMURIUM, Strain/Indicator: TA98, Metabolic Activation: NONE, Method: SPIRAL ASSAY): inactive; negative
mutagenic call (Test System: AMES SALMONELLA TYPHIMURIUM, Strain/Indicator: TA98, Metabolic Activation: NONE, Method: STANDARD PLATE): inactive; negative
mutagenic call (Test System: AMES SALMONELLA TYPHIMURIUM, Strain/Indicator: TA98, Metabolic Activation: RAT, LIVER, S-9, AROCLOR 1254 (10%), Method: PREINCUBATION): inactive; negative
mutagenic call (Test System: AMES SALMONELLA TYPHIMURIUM, Strain/Indicator: TA98, Metabolic Activation: RAT, LIVER, S-9, AROCLOR 1254, Method: SPIRAL ASSAY): inactive; negative
mutagenic call (Test System: AMES SALMONELLA TYPHIMURIUM, Strain/Indicator: TA98, Metabolic Activation: RAT, LIVER, S-9, AROCLOR 1254, Method: STANDARD PLATE): inactive; negative
mutagenic call (Test System: AMES SALMONELLA TYPHIMURIUM, Strain/Indicator: TA100, Metabolic Activation: HAMSTER, LIVER, S-9, AROCLOR 1254 (10%), Method: PREINCUBATION): inactive; negative
mutagenic call (Test System: AMES SALMONELLA TYPHIMURIUM, Strain/Indicator: TA100, Metabolic Activation: NONE, Method: PREINCUBATION): inactive; negative
mutagenic call (Test System: AMES SALMONELLA TYPHIMURIUM, Strain/Indicator: TA100, Metabolic Activation: NONE, Method: SPIRAL ASSAY): inactive; negative
mutagenic call (Test System: AMES SALMONELLA TYPHIMURIUM, Strain/Indicator: TA100, Metabolic Activation: NONE, Method: STANDARD PLATE): inactive; negative
mutagenic call (Test System: AMES SALMONELLA TYPHIMURIUM, Strain/Indicator: TA100, Metabolic Activation: RAT, LIVER, S-9, AROCLOR 1254 (10%), Method: PREINCUBATION): inactive; negative
mutagenic call (Test System: AMES SALMONELLA TYPHIMURIUM, Strain/Indicator: TA100, Metabolic Activation: RAT, LIVER, S-9, AROCLOR 1254, Method: SPIRAL ASSAY): inactive; negative
mutagenic call (Test System: AMES SALMONELLA TYPHIMURIUM, Strain/Indicator: TA100, Metabolic Activation: RAT, LIVER, S-9, AROCLOR 1254, Method: STANDARD PLATE): inactive; negative
mutagenic call (Test System: AMES SALMONELLA TYPHIMURIUM, Strain/Indicator: TA1535, Metabolic Activation: HAMSTER, LIVER, S-9, AROCLOR 1254 (10%), Method: PREINCUBATION): inactive; negative
mutagenic call (Test System: AMES SALMONELLA TYPHIMURIUM, Strain/Indicator: TA1535, Metabolic Activation: NONE, Method: PREINCUBATION): inactive; negative
mutagenic call (Test System: AMES SALMONELLA TYPHIMURIUM, Strain/Indicator: TA1535, Metabolic Activation: NONE, Method: SPIRAL ASSAY): inactive; negative
mutagenic call (Test System: AMES SALMONELLA TYPHIMURIUM, Strain/Indicator: TA1535, Metabolic Activation: NONE, Method: STANDARD PLATE): inactive; negative
mutagenic call (Test System: AMES SALMONELLA TYPHIMURIUM, Strain/Indicator: TA1535, Metabolic Activation: RAT, LIVER, S-9, AROCLOR 1254 (10%), Method: PREINCUBATION): inactive; negative
mutagenic call (Test System: AMES SALMONELLA TYPHIMURIUM, Strain/Indicator: TA1535, Metabolic Activation: RAT, LIVER, S-9, AROCLOR 1254, Method: SPIRAL ASSAY): inactive; negative
mutagenic call (Test System: AMES SALMONELLA TYPHIMURIUM, Strain/Indicator: TA1535, Metabolic Activation: RAT, LIVER, S-9, AROCLOR 1254, Method: STANDARD PLATE): inactive; negative
mutagenic call (Test System: AMES SALMONELLA TYPHIMURIUM, Strain/Indicator: TA1535, Metabolic Activation: RAT, LIVER, S-9, TETRACHLOROBIPHENYL, Method: PREINCUBATION): inactive; negative
mutagenic call (Test System: AMES SALMONELLA TYPHIMURIUM, Strain/Indicator: TA1537, Metabolic Activation: HAMSTER, LIVER, S-9, AROCLOR 1254 (10%), Method: PREINCUBATION): active; positive
mutagenic call (Test System: AMES SALMONELLA TYPHIMURIUM, Strain/Indicator: TA1537, Metabolic Activation: NONE): active; positive
mutagenic call (Test System: AMES SALMONELLA TYPHIMURIUM, Strain/Indicator: TA1537, Metabolic Activation: NONE, Method: PREINCUBATION): active; positive
mutagenic call (Test System: AMES SALMONELLA TYPHIMURIUM, Strain/Indicator: TA1537, Metabolic Activation: NONE, Method: SPIRAL ASSAY): active; positive
mutagenic call (Test System: AMES SALMONELLA TYPHIMURIUM, Strain/Indicator: TA1537, Metabolic Activation: NONE, Method: STANDARD PLATE): active; positive
mutagenic call (Test System: AMES SALMONELLA TYPHIMURIUM, Strain/Indicator: TA1537, Metabolic Activation: RAT LIVER S-9, AROCLOR 1254, Method: FLUCTUATION (MICROTITER)): active; positive
mutagenic call (Test System: AMES SALMONELLA TYPHIMURIUM, Strain/Indicator: TA1537, Metabolic Activation: RAT, LIVER, S-9, AROCLOR 1254 (10%), Method: PREINCUBATION): active; positive
mutagenic call (Test System: AMES SALMONELLA TYPHIMURIUM, Strain/Indicator: TA1537, Metabolic Activation: RAT, LIVER, S-9, AROCLOR 1254, Method: SPIRAL ASSAY): active; positive
mutagenic call (Test System: AMES SALMONELLA TYPHIMURIUM, Strain/Indicator: TA1537, Metabolic Activation: RAT, LIVER, S-9, AROCLOR 1254, Method: STANDARD PLATE): active; positive
mutagenic call (Test System: AMES SALMONELLA TYPHIMURIUM, Strain/Indicator: TA1537, Metabolic Activation: RAT, LIVER, S-9, TETRACHLOROBIPHENYL, Method: PREINCUBATION): active; positive
mutagenic call (Test System: AMES SALMONELLA TYPHIMURIUM, Strain/Indicator: TA1538, Metabolic Activation: NONE, Method: PREINCUBATION): inactive; negative
mutagenic call (Test System: AMES SALMONELLA TYPHIMURIUM, Strain/Indicator: TA1538, Metabolic Activation: RAT, LIVER, S-9, TETRACHLOROBIPHENYL, Method: PREINCUBATION): inactive; negative
mutagenic call (Test System: AMES SALMONELLA TYPHIMURIUM, Strain/Indicator: TA1977, Metabolic Activation: NONE, Method: PREINCUBATION): active; positive
mutagenic call (Test System: AMES SALMONELLA TYPHIMURIUM, Strain/Indicator: TA1977, Metabolic Activation: RAT, LIVER, S-9, TETRACHLOROBIPHENYL, Method: PREINCUBATION): active; positive
mutagenic call (Test System: AMES SALMONELLA TYPHIMURIUM, Strain/Indicator: TA7001, Metabolic Activation: NONE, Method: FLUCTUATION (MICROTITER)): inactive; negative
mutagenic call (Test System: AMES SALMONELLA TYPHIMURIUM, Strain/Indicator: TA7002, Metabolic Activation: NONE, Method: FLUCTUATION (MICROTITER)): inactive; negative
mutagenic call (Test System: AMES SALMONELLA TYPHIMURIUM, Strain/Indicator: TA7003, Metabolic Activation: NONE, Method: FLUCTUATION (MICROTITER)): inactive; negative
mutagenic call (Test System: AMES SALMONELLA TYPHIMURIUM, Strain/Indicator: TA7004, Metabolic Activation: NONE, Method: FLUCTUATION (MICROTITER)): inactive; negative
mutagenic call (Test System: AMES SALMONELLA TYPHIMURIUM, Strain/Indicator: TA7005, Metabolic Activation: NONE, Method: FLUCTUATION (MICROTITER)): inactive; negative
mutagenic call (Test System: AMES SALMONELLA TYPHIMURIUM, Strain/Indicator: TA7006, Metabolic Activation: NONE, Method: FLUCTUATION (MICROTITER)): inactive; negative
mutagenic call (Test System: CHINESE HAMSTER OVARY, Strain/Indicator: CHO-K1-BH4 (HGPRT), Metabolic Activation: NONE, Method: SUSPENSION/PLATE): inactive; negative
mutagenic call (Test System: CHINESE HAMSTER OVARY, Strain/Indicator: CHO-K1-BH4 (HGPRT), Metabolic Activation: RAT, LIVER, S-9, AROCLOR, Method: SUSPENSION/PLATE): inactive; negative
mutagenic call (Test System: CHINESE HAMSTER V-79, Strain/Indicator: V-79/6-THIOGUANINE, Metabolic Activation: NONE, Method: FLASK ASSAY): inactive; negative
mutagenic call (Test System: E. COLI, Strain/Indicator: WP2 UVRA, Metabolic Activation: HAMSTER, LIVER, S-9, AROCLOR 1254, Method: STANDARD PLATE): inactive; negative
mutagenic call (Test System: E. COLI, Strain/Indicator: WP2 UVRA, Metabolic Activation: HAMSTER, LIVER, S-9, Method: STANDARD PLATE): inactive; negative
mutagenic call (Test System: E. COLI, Strain/Indicator: WP2 UVRA, Metabolic Activation: MOUSE, LIVER, S-9, AROCLOR 1254, Method: STANDARD PLATE): inactive; negative
mutagenic call (Test System: E. COLI, Strain/Indicator: WP2 UVRA, Metabolic Activation: MOUSE, LIVER, S-9, Method: STANDARD PLATE): inactive; negative
mutagenic call (Test System: E. COLI, Strain/Indicator: WP2 UVRA, Metabolic Activation: NONE, Method: STANDARD PLATE): inactive; negative
mutagenic call (Test System: E. COLI, Strain/Indicator: WP2 UVRA, Metabolic Activation: RAT, LIVER, S-9, AROCLOR 1254, Method: STANDARD PLATE): inactive; negative
mutagenic call (Test System: E. COLI, Strain/Indicator: WP2 UVRA, Metabolic Activation: RAT, LIVER, S-9, Method: STANDARD PLATE): inactive; negative
mutagenic call (Test System: E. coli, Strain/Indicator: KKi (wild-type), KK5 (recA56) and KK6 (uvrA6), Metabolic Activation: None, Method: Viable cells scored on LB-plates after 18 hr incubation): active; positive in all 3 strains (most common mutations minus frameshifts in repetitive
mutagenic call (Test System: UDS RAT HEPATOCYTES, Strain/Indicator: THY INCORP, Metabolic Activation: NONE, Method: AUTORADIOGRAPHY (SERUM-FREE MEDIA)): inactive; negative
